Test results reported in patent US20250281483A1, “TRANSCRIPTION FACTOR EB ACTIVATORS AND USES THEREOF” (Astellas Engineered Small Molecules US, Incorporated, priority 2022, published 2025).

What follows are compounds tested against T1, TFEB (Homo sapiens, UniProt P19484) (assay: Tfeb-Translocation Assay HEK-293T-oEX-Tfeb-GFP Cell Line). Conditions: HEK-293T-oEX-TFEB-GFP cells; translocation positive cells ratio; read-out: TFEB Translocation EC50.
T1 sequence (P19484 1-476): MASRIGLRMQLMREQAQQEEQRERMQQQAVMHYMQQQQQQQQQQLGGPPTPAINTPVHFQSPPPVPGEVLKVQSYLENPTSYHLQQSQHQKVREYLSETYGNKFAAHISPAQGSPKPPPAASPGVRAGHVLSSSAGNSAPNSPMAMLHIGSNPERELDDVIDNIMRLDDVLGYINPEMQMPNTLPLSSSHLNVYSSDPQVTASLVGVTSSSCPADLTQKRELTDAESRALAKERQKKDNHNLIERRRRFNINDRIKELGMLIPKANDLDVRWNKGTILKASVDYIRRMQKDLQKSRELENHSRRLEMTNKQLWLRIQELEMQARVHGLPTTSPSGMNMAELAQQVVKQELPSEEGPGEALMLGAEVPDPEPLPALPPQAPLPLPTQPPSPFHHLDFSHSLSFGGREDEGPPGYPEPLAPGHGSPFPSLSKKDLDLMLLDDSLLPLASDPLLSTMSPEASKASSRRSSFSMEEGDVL
Format: cell-based
Method: Tfeb-Translocation Assay HEK-293T-oEX-Tfeb-GFP Cell Line
• 1). Added 2×10^6 cell into a T75 flask with 15 mL DiVEM medium (with 10% FBS, 1% PS, 1×GLUTAMAX, 1×MEM NEAA, 1×HEPES Buffer Solution and 5 ug/mL blasticidin). • 2). Culturing for 48-72 hours. Cells in logarithmic growth phase were taken for experiment. The other cells were passaged as described in step 1. • 3). Seeded 1×10^4 cells/30 μL/well into 384-well plate (BD 356663). Cultured overnight at 37° C. & 5% CO2 incubator. • 4). Note: Used cells <10 passage
• 1). Compounds were firstly diluted by DMSO to the stock needed (10 mM), and aliquoted and stored at −20° C. • 2). Took one aliquot each time and made 3-fold or 2-fold dilutions as indicated, total 10 doses plus one DMSO control well in the source plate. • 3). Added 150 or 90 nL/well compounds solution to the assay plate by ECHO and incubated for 6 or 18 hours respectively at 37° C. & 5% CO2 incubator.
• 1). Added 30 uL 8% PFA into the wells and incubated 20 min at room temperature. • 2). Discarded the medium, washed the wells twice with DPBS to eliminate foam and bubbles in the well.
• 1). Diluted Hoechest-333824 in DPBS to get 2 μg/mL solution and added 30 uL/well into assay plate, incubated at room temperature for 20 mins. • 2). Discarded the supernatant, washed the wells twice with DPBS to eliminate foam and bubbles in the well. Then added DPBS 20 uL/well.
3). Scanned Plate by Operetta.
• 1). Reference compound: Torin 1 • 2). Test compounds: C1, C2, C3, C4, C5, C6. • 3). Diluted compounds in 384 LDV-dilution plate according to the dilution plate map • 4). Compounds starting concentration: Torin 1: 300 nM and Test compounds: 50 uM.
• 1). Selected all nucleus by Operetta as ‘All Cells’ • 2). Calculated the EGFP average intensity inside the Nucleus region. • 3). Selected population that the EGFP mean intensity inside the Nucleus region>background as the EGFP-positive cells • 4). Selected the Surrounding region of the nucleus and calculated the EGFP mean intensity of the region • 5). Inside the EGFP-positive cell population, selected the cells with EGFP mean intensity inside the Nucleus region/the EGFP mean intensity inside the surrounding region=1.2 (This ratio could be slightly adjusted from time to time) as the Translocation positive cell. • 6). Outputted the ratio of Translocation positive cell/EGFP-positive cells as the Translocation Positive Ratio. • 7). Each time set the ratio of DMSO group (Control Group) as ˜15% and then normalized the compound group to the DMSO group.

Row | Compound | EC50
1 | Cc1cnc(CNC(=O)c2cc3c(=O)n(Cc4ccccc4)ccc3nc2C)o1 [Example 3, 6-benzyl-2-methyl-N-((5-methyloxazol-2-yl)methyl)-5-oxo-5,6-dihydro-1,6-naphthyridine-3-carboxamide] | 0.1 to 1 µM
2 | Cc1nc2ccn(Cc3ccccc3)c(=O)c2cc1C(=O)NCc1cn(C)nn1 [Example 8, 6-benzyl-2-methyl-N-((1-methyl-11H-1,2,3-triazol-4-yl)methyl)-5-oxo-5,6-dihydro-1,6-naphthyridine-3-carboxamide] | 1 to 10 µM
3 | Cc1noc(CNC(=O)c2cc3c(=O)n(Cc4ccccc4)ccc3nc2C)n1 [Example 10, 6-benzyl-2-methyl-N-((3-methyl-1,2,4-oxadiazol-5-yl)methyl)-5-oxo-5,6-dihydro-1,6-naphthyridine-3-carboxamide] | 0.1 to 1 µM
4 | Cc1nc2ccn(CC3CCCO3)c(=O)c2cc1C(=O)NCc1ccc(Cl)cc1 (centres unmarked) [Example 11, N-(4-chlorobenzyl)-2-methyl-5-oxo-6-((tetrahydrofuran-2-yl)methyl)-5,6-dihydro-1,6-naphthyridine-3-carboxamide] | 1 to 10 µM
5 | Cc1nc2ccn(Cc3ccccc3)c(=O)c2cc1C(=O)NCc1ccncc1 [Example 12, 6-benzyl-2-methyl-5-oxo-N-(pyridin-4-ylmethyl)-5,6-dihydro-1,6-naphthyridine-3-carboxamide] | 1 to 10 µM
6 | Cc1nnc(CNC(=O)c2cc3c(=O)n(Cc4ccccc4)ccc3nc2C)o1 [Example 13, 6-benzyl-2-methyl-N-((5-methyl-1,3,4-oxadiazol-2-yl)methyl)-5-oxo-5,6-dihydro-1,6-naphthyridine-3-carboxamide] | 1 to 10 µM
7 | Cc1nc2ccn(Cc3ccccc3)c(=O)c2cc1C(=O)NCc1cnn(C)c1 [Example 15, 6-benzyl-2-methyl-N-((1-methyl-1H-pyrazol-4-yl)methyl)-5-oxo-5,6-dihydro-1,6-naphthyridine-3-carboxamide] | 0.1 to 1 µM
8 | Cc1nc2ccn(Cc3ccccc3)c(=O)c2cc1C(=O)NCc1ccccc1F [Example 16, 6-benzyl-N-(2-fluorobenzyl)-2-methyl-5-oxo-5,6-dihydro-1,6-naphthyridine-3-carboxamide] | 0.1 to 1 µM
9 | COCCn1ccc2nc(C)c(C(=O)NCc3ccc(Cl)cc3)cc2c1=O [Example 20, N-(4-chlorobenzyl)-6-(2-methoxyethyl)-2-methyl-5-oxo-5,6-dihydro-1,6-naphthyridine-3-carboxamide] | 1 to 10 µM
10 | Cc1nc2ccn(Cc3ccccc3)c(=O)c2cc1C(=O)NCc1ccc(Cl)cc1 [Example 22, 6-benzyl-N-(4-chlorobenzyl)-2-methyl-5-oxo-5,6-dihydro-1,6-naphthyridine-3-carboxamide] | < 0.1 µM
11 | Cc1nc2ccn(Cc3ccccc3)c(=O)c2cc1C(=O)NCc1ccc(C(F)(F)F)cc1 [Example 25, 6-benzyl-2-methyl-5-oxo-N-(4-(trifluoromethyl)benzyl)-5,6-dihydro-1,6-naphthyridine-3-carboxamide] | ≥ 10 µM
12 | Cc1nc2ccn(CC3CCO3)c(=O)c2cc1C(=O)NCc1ccc(Cl)cc1 (centres unmarked) [Example 27, N-(4-chlorobenzyl)-2-methyl-6-(oxetan-2-ylmethyl)-5-oxo-5,6-dihydro-1,6-naphthyridine-3-carboxamide] | 1 to 10 µM
13 | Cc1nc2ccn(Cc3ccccc3)c(=O)c2cc1C(=O)NC(C)c1ccccn1 (centres unmarked) [Example 28, 6-benzyl-2-methyl-5-oxo-N-(1-(pyridin-2-yl)ethyl)-5,6-dihydro-1,6-naphthyridine-3-carboxamide] | ≥ 10 µM
14 | Cc1nc2ccn(Cc3ccccc3)c(=O)c2cc1C(=O)NCc1cnccn1 [Example 32, 6-benzyl-2-methyl-5-oxo-N-(pyrazin-2-ylmethyl)-5,6-dihydro-1,6-naphthyridine-3-carboxamide] | 0.1 to 1 µM
15 | Cc1nc2ccn(Cc3ccccc3)c(=O)c2cc1C(=O)NCc1cccnn1 [Example 33, 6-benzyl-2-methyl-5-oxo-N-(pyridazin-3-ylmethyl)-5,6-dihydro-1,6-naphthyridine-3-carboxamide] | 1 to 10 µM
16 | Cc1nc2ccn(Cc3ccccc3)c(=O)c2cc1C(=O)NCc1cncnc1 [Example 34, 6-benzyl-2-methyl-5-oxo-N-(pyrimidin-5-ylmethyl)-5,6-dihydro-1,6-naphthyridine-3-carboxamide] | 0.1 to 1 µM

Further lines, results first:

Row | EC50 | Compound
17 | 0.1 to 1 µM | 6-benzyl-2-methyl-N-((4-methyloxazol-2-yl)methyl)-5-oxo-5,6-dihydro-1,6-naphthyridine-3-carboxamide [Example 66]
18 | 1 to 10 µM | Cc1nc2ccn(Cc3cccnc3)c(=O)c2cc1C(=O)NCc1ccc(Cl)cc1 [Comparator 1, reference compound]
19 | 0.1 to 1 µM | Cc1ccc(CNC(=O)c2cc3c(=O)n(Cc4ccc(F)cn4)ccc3nc2C)o1 [Example 2, 6-((5-fluoropyridin-2-yl)methyl)-2-methyl-N-((5-methylfuran-2-yl)methyl)-5-oxo-5,6-dihydro-1,6-naphthyridine-3-carboxamide]
20 | 0.1 to 1 µM | Cc1ncc(CNC(=O)c2cc3c(=O)n(Cc4ccccc4)ccc3nc2C)o1 [Example 4, 6-benzyl-2-methyl-N-((2-methyloxazol-5-yl)methyl)-5-oxo-5,6-dihydro-1,6-naphthyridine-3-carboxamide]
21 | 0.1 to 1 µM | Cc1nc2ccn(Cc3ccccc3)c(=O)c2cc1C(=O)NCc1cnn(C)n1 [Example 9, 6-benzyl-2-methyl-N-((2-methyl-2H-1,2,3-triazol-4-yl)methyl)-5-oxo-5,6-dihydro-1,6-naphthyridine-3-carboxamide]
22 | 0.1 to 1 µM | Cc1nc2ccn(Cc3ccccc3)c(=O)c2cc1C(=O)NCc1ccn(C)n1 [Example 14, 6-benzyl-2-methyl-N-((1-methyl-1H-pyrazol-3-yl)methyl)-5-oxo-5,6-dihydro-1,6-naphthyridine-3-carboxamide]
23 | 1 to 10 µM | Cc1nc(CNC(=O)c2cc3c(=O)n(Cc4ccccc4)ccc3nc2C)no1 [Example 19, 6-benzyl-2-methyl-N-((5-methyl-1,2,4-oxadiazol-3-yl)methyl)-5-oxo-5,6-dihydro-1,6-naphthyridine-3-carboxamide]
24 | ≥ 10 µM | COCCn1ccc2nc(C)c(C(=O)NCc3cnc(C)o3)cc2c1=O [Example 21, 6-(2-methoxyethyl)-2-methyl-N-((2-methyloxazol-5-yl)methyl)-5-oxo-5,6-dihydro-1,6-naphthyridine-3-carboxamide]
25 | 0.1 to 1 µM | Cc1nc2ccn(Cc3ccccc3)c(=O)c2cc1C(=O)NCc1cccnc1 [Example 23, 6-benzyl-2-methyl-5-oxo-N-(pyridin-3-ylmethyl)-5,6-dihydro-1,6-naphthyridine-3-carboxamide]
26 | 1 to 10 µM | COc1ccc(CNC(=O)c2cc3c(=O)n(Cc4ccccc4)ccc3nc2C)cc1 [Example 24, 6-benzyl-N-(4-methoxybenzyl)-2-methyl-5-oxo-5,6-dihydro-1,6-naphthyridine-3-carboxamide]
27 | 0.1 to 1 µM | Cc1nc2ccn(CC3CCCCO3)c(=O)c2cc1C(=O)NCc1ccc(Cl)cc1 (centres unmarked) [Example 26, N-(4-chlorobenzyl)-2-methyl-5-oxo-6-((tetrahydro-2H-pyran-2-yl)methyl)-5,6-dihydro-1,6-naphthyridine-3-carboxamide]
28 | ≥ 10 µM | Cc1nc2ccn(Cc3ccccc3)c(=O)c2cc1C(=O)NCc1ncccn1 [Example 29, 6-benzyl-2-methyl-5-oxo-N-(pyrimidin-2-ylmethyl)-5,6-dihydro-1,6-naphthyridine-3-carboxamide]
29 | 1 to 10 µM | COCCn1ccc2nc(C)c(C(=O)NCc3ccccn3)cc2c1=O [Example 30, 6-(2-methoxyethyl)-2-methyl-5-oxo-N-(pyridin-2-ylmethyl)-5,6-dihydro-1,6-naphthyridine-3-carboxamide]
